Target: IDH1 R132H (Homo sapiens (Human), UniProt O75874, R132H)
Experiment: Assays for IDH1 R132H Inhibitors (NADPH/aKG, resazurin detection)
Format: biochemical
Details: IDH1 R132H enzyme, Table 2; read-out: IDHR132H Activity
Method in brief: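 Substrate mix held 8 uM NADPH plus 2 mM aKG; buffer was 20 mM Tris pH 7.5 with 150 mM NaCl, 10 mM MgCl2, 0.03% BSA. After 50 min room-temperature reaction, NADPH remaining was detected with 30 μM resazurin mix over 5 min.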

IDH1 R132H, sequence (O75874 whole entry R132H): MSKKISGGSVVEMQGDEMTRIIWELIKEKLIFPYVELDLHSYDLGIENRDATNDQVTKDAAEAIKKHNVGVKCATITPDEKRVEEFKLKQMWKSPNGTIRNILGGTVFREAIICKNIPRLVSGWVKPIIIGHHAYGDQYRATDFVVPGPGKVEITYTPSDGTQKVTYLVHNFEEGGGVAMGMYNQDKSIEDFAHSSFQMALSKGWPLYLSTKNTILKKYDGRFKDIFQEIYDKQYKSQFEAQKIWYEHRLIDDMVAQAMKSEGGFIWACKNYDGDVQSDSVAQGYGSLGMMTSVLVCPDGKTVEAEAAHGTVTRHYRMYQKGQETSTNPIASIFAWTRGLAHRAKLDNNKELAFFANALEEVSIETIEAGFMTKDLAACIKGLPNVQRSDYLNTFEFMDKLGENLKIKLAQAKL

Compound	IC50 [µM]
CC(C)[C@@H]1CN(c2nc(C3CCCCC3)c3c(c2C#N)CCOC3)CCN1C(=O)c1ccoc1 [Compound 183, (R)-8-cyclohexyl-6-(4-(furan-3-carbonyl)-3-isopropylpiperazin-1-yl)-3,4-dihydro-1H-pyrano[3,4-c]pyridine-5-carbonitrile]	1 to 10
Cc1occc1C(=O)N1CCN(c2nc(C3CCCCC3)c3c(c2C#N)CCOC3)C[C@H]1C [Compound 184, (R)-8-cyclohexyl-6-(3-methyl-4-(2-methylfuran-3-carbonyl)piperazin-1-yl)-3,4-dihydro-1H-pyrano[3,4-c]pyridine-5-carbonitrile]	1 to 10
C[C@@H]1CN(c2nc(C3CCCCC3)c3c(c2C#N)CCOC3)CCN1C(=O)Cc1cccs1 [Compound 185, (R)-8-cyclohexyl-6-(3-methyl-4-(2-(thiophen-2-yl)acetyl)piperazin-1-yl)-3,4-dihydro-1H-pyrano[3,4-c]pyridine-5-carbonitrile]	1 to 10
Cc1ccoc1C(=O)N1CCN(c2nc(C3CCCCC3)c3c(c2C#N)CCOC3)C[C@H]1C [Compound 186, (R)-8-cyclohexyl-6-(3-methyl-4-(3-methylfuran-2-carbonyl)piperazin-1-yl)-3,4-dihydro-1H-pyrano[3,4-c]pyridine-5-carbonitrile]	1 to 10
Cc1oncc1C(=O)N1CCN(c2nc(C3CCCCC3)c3c(c2C#N)CCOC3)C[C@H]1C [Compound 187, (R)-8-cyclohexyl-6-(3-methyl-4-(5-methylisoxazole-4-carbonyl)piperazin-1-yl)-3,4-dihydro-1H-pyrano[3,4-c]pyridine-5-carbonitrile]	0.5 to 1
C[C@@H]1CN(c2nc(C3CCCCC3)c3c(c2C#N)CCOC3)CCN1C(=O)Cc1ccccc1F [Compound 188, (R)-8-cyclohexyl-6-(4-(2-(2-fluorophenyl)acetyl)-3-methylpiperazin-1-yl)-3,4-dihydro-1H-pyrano[3,4-c]pyridine-5-carbonitrile]	1 to 10
COc1cccc(CC(=O)N2CCN(c3nc(C4CCCCC4)c4c(c3C#N)CCOC4)C[C@H]2C)c1 [Compound 189, (R)-8-cyclohexyl-6-(4-(2-(3-methoxyphenyl)acetyl)-3-methylpiperazin-1-yl)-3,4-dihydro-1H-pyrano[3,4-c]pyridine-5-carbonitrile]	1 to 10
Cc1nc2ccccn2c1C(=O)N1CCN(c2nc(C3CCCCC3)c3c(c2C#N)CCOC3)C[C@H]1C [Compound 190, (R)-8-cyclohexyl-6-(3-methyl-4-(2-methylimidazo[1,2-a]pyridine-3-carbonyl)piperazin-1-yl)-3,4-dihydro-1H-pyrano[3,4-c]pyridine-5-carbonitrile]	1 to 10
C[C@@H]1CN(c2nc(C3CCCCC3)c3c(c2C#N)CCOC3)CCN1C(=O)Cc1cccc(F)c1 [Compound 191, (R)-8-cyclohexyl-6-(4-(2-(3-fluorophenyl)acetyl)-3-methylpiperazin-1-yl)-3,4-dihydro-1H-pyrano[3,4-c]pyridine-5-carbonitrile]	1 to 10
Cc1ccoc1C(=O)N1CCN(c2nc(C3CC3)c3c(c2C#N)CC(C)(C)OC3)C[C@H]1C(C)C [Compound 193]	1 to 10
CC(C)[C@@H]1CN(c2nc(C3CC3)c3c(c2C#N)CC(C)(C)OC3)CCN1C(=O)Cc1cccs1 [Compound 194]	< 0.5
CC(C)c1nc(N2CCN(C(=O)Cc3cccs3)[C@H](C(C)C)C2)c(C#N)c2c1COC(C)(C)C2 [Compound 195, (R)-8-isopropyl-6-(3-isopropyl-4-(2-(thiophen-2-yl)acetyl)piperazin-1-yl)-3,3-dimethyl-3,4-dihydro-1H-pyrano[3,4-c]pyridine-5-carbonitrile]	< 0.5
Cc1cc(C(=O)N2CCN(c3nc(C(C)C)c4c(c3C#N)CC(C)(C)OC4)C[C@H]2C)c(C)o1 [Compound 196, (R)-6-(4-(2,5-dimethylfuran-3-carbonyl)-3-methylpiperazin-1-yl)-8-isopropyl-3,3-dimethyl-3,4-dihydro-1H-pyrano[3,4-c]pyridine-5-carbonitrile]	1 to 10

Source: US9662327B2 (AGIOS PHARMACEUTICALS, INC, priority 2011, dated 2017)
